The subject of one data set is Vero cells. Put plainly: Cytotoxicity MTT assay in Vero cells (MNTD, CC50). The class given is cell-based, African green monkey. The note with it: Table S1; Vero cells. In general terms: Tetrazolium dyes change colour on reduction, which living cells bring about.
The next data set has as its system CHIKV DRDE-07. The data set can be described thus: In vitro screening against CHIKV (CPE inhibition and MTT cell viability). The class given is cell-based, chikungunya virus. The note with it: Table S1, CHIKV-infected Vero cells; for % Cell viability: 72 hpi, MTT assay; for CPE: arbitrary score of cytopathic effect at >48 hpi.

Turning to `Cc1ccc(/C=N/NC(=O)c2ccncc2)cc1` [DCR31, (E)-N'-(4-methylbenzylidene)isonicotinohydrazide], the MNTD with Vero cells came to 62.5 µM. For the same compound, in the data set on CHIKV DRDE-07, the “% Cell viability” value stood at 1.03% and the CPE entry is “++++ (>60% (++++))”.
For `COc1ccc(COC(=O)C2=C(C)NC(=O)NC2c2ccc(OC)cc2)cc1` (stereo not drawn) [DCR101, 4-methoxybenzyl 4-(4-methoxyphenyl)-6-methyl-2-oxo-1,2,3,4-tetrahydropyrimidine-5-carboxylate], in that order: 250 µM, 7.02% and “++++ (>60% (++++))”.
As to `O=C(N/N=C/c1ccc(Cl)cc1)c1cccnc1` [DCR25, (E)-N'-(4-chlorobenzylidene)nicotinohydrazide], the MNTD in the data set with Vero cells was 62.5 µM. For the same compound, in the data set with CHIKV DRDE-07, the “% Cell viability” value came to 30.15% and the CPE entry is “++++ (>60% (++++))”.
The compound `C#CCOC(=O)C1=C(C)NC(=O)NC1c1ccc(C(F)(F)F)cc1` (stereo not drawn) [DCR91, prop-2-yn-1-yl 6-methyl-2-oxo-4-[4-(trifluoromethyl)phenyl]-1,2,3,4-tetrahydropyrimidine-5-carboxylate] gave an MNTD in the data set with Vero cells of 369.52 µM. Also, in the data set with CHIKV DRDE-07, the “% Cell viability” value is given as 13.12% and the CPE result is “++++ (>60% (++++))”.
`CCOc1ccc(/C=N/NC(=O)c2ccncc2)cc1OC` [DCR32, (E)-N'-(4-ethoxy-3-methoxybenzylidene)isonicotinohydrazide] had an MNTD in the data set with Vero cells of 31.25 µM. Moreover, in the data set on CHIKV DRDE-07, the “% Cell viability” value is 6.03% and the CPE result was “++++ (>60% (++++))”.
Regarding `COc1ccc(C2NC(=O)NC(C)=C2C(=O)OCC(C)C)cc1` (stereo not drawn) [DCR99, 2-methylpropyl 4-(4-methoxyphenyl)-6-methyl-2-oxo-1,2,3,4-tetrahydropyrimidine-5-carboxylate], the MNTD in the data set on Vero cells is recorded as 392.64 µM. In the data set on CHIKV DRDE-07, the “% Cell viability” value was 11.29% and the CPE entry is listed as “++++ (>60% (++++))”.
For `COc1ccc(C2NC(=O)NC(C)=C2C(=O)OCCC(C)C)cc1` (stereo not drawn) [DCR96, 3-methylbutyl 4-(4-methoxyphenyl)-6-methyl-2-oxo-1,2,3,4-tetrahydropyrimidine-5-carboxylate], in that order: 376.06 µM, 11.71% and “++++ (>60% (++++))”.
In the data set on Vero cells, `O=C(O)c1ccc(-c2cc(-c3ccc(O)cc3)nn2C(=O)c2cccnc2)cc1` [DCR62, 4-[3-(4-hydroxyphenyl)-1-(pyridine-3-carbonyl)-1H-pyrazol-5-yl]benzoic acid] had an MNTD of 31.25 µM. Moreover, in the data set with CHIKV DRDE-07, the “% Cell viability” value is given as -27.93% and the CPE entry is recorded as “++++ (>60% (++++))”.
`COc1ccc(C2NC(=O)NC(C)=C2C(=O)OCc2ccccc2)cc1` (stereo not drawn) [DCR102, benzyl 4-(4-methoxyphenyl)-6-methyl-2-oxo-1,2,3,4-tetrahydropyrimidine-5-carboxylate] had an MNTD in the data set on Vero cells of 250 µM. In the data set with CHIKV DRDE-07, the “% Cell viability” value worked out at 8.11% and the CPE entry is recorded as “++++ (>60% (++++))”.
In the case of `CC1(C)CC(=O)C2=C(C1)OC1=C(C(=O)CC(C)(C)C1)C2c1cccc([N+](=O)[O-])c1` [DCR129, 3,3,6,6‐tetramethyl‐9‐(3‐nitrophenyl)‐2,3,4,5,6,7,8,9‐octahydro‐1H‐xanthene‐1,8‐dione], the MNTD in the data set on Vero cells was 31.25 µM. Further, in the data set with CHIKV DRDE-07, the “% Cell viability” value is listed as 16.85% and the CPE result is on record as “++++ (>60% (++++))”.
In the data set with Vero cells, `O=C(N/N=C/c1cccc(Br)c1)c1cccnc1` [DCR22, (E)-N'-(3-bromobenzylidene)nicotinohydrazide] showed an MNTD of 15.6 µM. Also, in the data set on CHIKV DRDE-07, the “% Cell viability” value is given as 19.28% and the CPE entry is “++++ (>60% (++++))”.
`CCOc1ccc(C2c3c(ccc4ccccc34)Oc3ccc4ccccc4c32)cc1` [DCR114, 2‐(4‐ethoxyphenyl)‐13‐oxapentacyclo[12.8.0.0³,¹².0⁴,⁹.0¹⁷,²²]docosa‐1(14),3,5,7,9,11,15,17(22),18,20‐decaene] gave an MNTD in the data set on Vero cells of 31.25 µM. In the data set on CHIKV DRDE-07, the “% Cell viability” value was 4.05% and the CPE entry was “++++ (>60% (++++))”.
The matching figures for `N#Cc1ccccc1NCc1ccccc1` [DCR147, 2-Benzylamino-benzonitrile]: 125 µM, 17.97% and “++++ (>60% (++++))”.
Compound `CC(=O)Cc1noc(-c2ccc(Br)cc2)n1` [DCR85, 1-[5-(4-bromophenyl)-1,2,4-oxadiazol-3-yl]propan-2-one] had an MNTD in the data set with Vero cells of 222.34 µM. Further, in the data set with CHIKV DRDE-07, the “% Cell viability” value is reported as 10.38% and the CPE entry was “++++ (>60% (++++))”.
`CC1=C(C(=O)OCCN(C)C)C(c2ccc([N+](=O)[O-])cc2)NC(=O)N1` (stereo not drawn) [DCR73, 2-(dimethylamino)ethyl 6-methyl-4-(4-nitrophenyl)-2-oxo-1,2,3,4-tetrahydropyrimidine-5-carboxylate]: in the data set on Vero cells, the MNTD came to 31.25 µM. Besides, in the data set with CHIKV DRDE-07, the “% Cell viability” value amounted to 24.54% and the CPE result was “++++ (>60% (++++))”.
With `C/C(=N\NC(=O)c1ccncc1)c1ccccc1O` [DCR44, (E)-N'-(1-(2-hydroxyphenyl)ethylidene)isonicotinohydrazide], in the data set with Vero cells, the MNTD is given as 31.25 µM. In addition, in the data set on CHIKV DRDE-07, the “% Cell viability” value is reported as 18.88% and the CPE result is listed as “++++ (>60% (++++))”.
For `CCOc1cc(/C=N/NC(=O)c2cccnc2)ccc1O` [DCR18, (E)-N'-(3-ethoxy-4-hydroxybenzylidene)nicotinohydrazide], in the data set on Vero cells, the MNTD turned out to be 31.25 µM. In addition, in the data set with CHIKV DRDE-07, the “% Cell viability” value is reported as 15.39% and the CPE entry is given as “++++ (>60% (++++))”.
`CCOc1ccc(C2NC(=O)Oc3ccc4ccccc4c32)cc1` (stereo not drawn) [DCR69, 1-(4-ethoxyphenyl)-1H,2H,3H-naphtho[1,2-e][1,3]oxazin-3-one] gave an MNTD in the data set on Vero cells of 195.71 µM. In addition, in the data set on CHIKV DRDE-07, the “% Cell viability” value is listed as 7.61% and the CPE result is recorded as “++++ (>60% (++++))”.
In the data set on Vero cells, `COc1cc(/C=N/NC(=O)c2cccnc2)cc(OC)c1OC` [DCR27, (E)-N'-(3,4,5-trimethoxybenzylidene)nicotinohydrazide] displayed an MNTD of 31.25 µM. Further, in the data set with CHIKV DRDE-07, the “% Cell viability” value was found to be 21.26% and the CPE entry is on record as “++++ (>60% (++++))”.
In turn, `c1cncc(C2c3c(ccc4ccccc34)Oc3ccc4ccccc4c32)c1` [DCR121, 3‐{13‐oxapentacyclo[12.8.0.0³,¹².0⁴,⁹.0¹⁷,²²]docosa‐1(14),3,5,7,9,11,15,17(22),18,20‐decaen‐2‐yl}pyridine] displayed an MNTD with Vero cells of 31.25 µM. For the same compound, in the data set on CHIKV DRDE-07, the “% Cell viability” value stood at 8.03% and the CPE entry is “++++ (>60% (++++))”.
In the data set with Vero cells, `C=C(C)CCOC(=O)C1=C(C)NC(=O)NC1c1ccc(OC)cc1` (stereo not drawn) [DCR103, 3-methylbut-3-en-1-yl 4-(4-methoxyphenyl)-6-methyl-2-oxo-1,2,3,4-tetrahydropyrimidine-5-carboxylate] returned an MNTD of 250 µM. Further, in the data set with CHIKV DRDE-07, the “% Cell viability” value is given as 21.11% and the CPE result is given as “++++ (>60% (++++))”.
For `O=C(N/N=C/c1ccc(Cl)cc1)c1ccncc1` [DCR40, (E)-N'-(4-chlorobenzylidene)isonicotinohydrazide], the MNTD in the data set with Vero cells is reported as 31.25 µM. In the data set with CHIKV DRDE-07, the “% Cell viability” value was found to be 5.23% and the CPE result is “++++ (>60% (++++))”.
As for `O=C(N/N=C/c1ccccc1[N+](=O)[O-])c1ccncc1` [DCR35, (E)-N'-(2-nitrobenzylidene)isonicotinohydrazide], in the data set with Vero cells, the MNTD is 62.5 µM. Besides, in the data set on CHIKV DRDE-07, the “% Cell viability” value stood at 9.84% and the CPE entry is on record as “++++ (>60% (++++))”.
In the data set with Vero cells, `O=C(c1cccnc1)n1nc(-c2ccc(O)cc2)cc1-c1ccccc1` [DCR55, 4-[5-phenyl-1-(pyridine-3-carbonyl)-1H-pyrazol-3-yl]phenol] yielded an MNTD of 31.25 µM. Also, in the data set with CHIKV DRDE-07, the “% Cell viability” value stood at 17.69% and the CPE result is given as “++++ (>60% (++++))”.
In the data set on Vero cells, `O=C1NC(c2cccc(Cl)c2)c2c(ccc3ccccc23)O1` (stereo not drawn) [DCR67, 1-(3-chlorophenyl)-1H,2H,3H-naphtho[1,2-e][1,3]oxazin-3-one] returned an MNTD of 50.44 µM. For the same compound, in the data set with CHIKV DRDE-07, the “% Cell viability” value is 10.94% and the CPE result was “++++ (>60% (++++))”.
In the data set on Vero cells, `CC1(C)CC(=O)C2=C(C1)OC1=C(C(=O)CC(C)(C)C1)C2c1cccc(O)c1` [DCR123, 9‐(3‐hydroxyphenyl)‐3,3,6,6‐tetramethyl‐2,3,4,5,6,7,8,9‐octahydro‐1H‐xanthene‐1,8‐dione] gave an MNTD of 125 µM. Further, in the data set with CHIKV DRDE-07, the “% Cell viability” value is on record as 12.01% and the CPE entry is reported as “++++ (>60% (++++))”.
On to `CC1(C)CC(=O)C2=C(C1)OC1=C(C(=O)CC(C)(C)C1)C2c1ccccc1Cl` [DCR124, 9‐(2‐chlorophenyl)‐3,3,6,6‐tetramethyl‐2,3,4,5,6,7,8,9‐octahydro‐1H‐xanthene‐1,8‐dione], for which, in the data set with Vero cells, the MNTD is 125 µM. In addition, in the data set on CHIKV DRDE-07, the “% Cell viability” value was 11.05% and the CPE result is “++++ (>60% (++++))”.
As for `COc1ccc(/C(=N\NC(=O)c2ccncc2)c2ccccc2)cc1` [DCR53, N'-[(1Z)-(4-methoxyphenyl)(phenyl)methylidene]pyridine-4-carbohydrazide], the MNTD with Vero cells is given as 31.25 µM. Also, in the data set on CHIKV DRDE-07, the “% Cell viability” value worked out at 11.42% and the CPE entry is reported as “++++ (>60% (++++))”.
As to `O=C(N/N=C/c1cccc([N+](=O)[O-])c1)c1ccncc1` [DCR34, (E)-N'-(3-nitrobenzylidene)isonicotinohydrazide], in the data set on Vero cells, the MNTD stood at 62.5 µM. Also, in the data set with CHIKV DRDE-07, the “% Cell viability” value came out at 6.42% and the CPE result is “++++ (>60% (++++))”.
The matching figures for `CC(=O)Cc1noc(-c2ccccn2)n1` [DCR84, 1-[5-(pyridin-2-yl)-1,2,4-oxadiazol-3-yl]propan-2-one]: 125 µM, 2.86% and “++++ (>60% (++++))”.
Turning to `CC1CN(c2ccccc2C#N)CC(C)N1` (stereo not drawn) [DCR142, 2-(3,5-Dimethyl-piperazin-1-yl)-benzonitrile], the MNTD with Vero cells is 125 µM. Further, in the data set on CHIKV DRDE-07, the “% Cell viability” value is 13.08% and the CPE entry is “++++ (>60% (++++))”.

The record behind these values is article PMC10674894 (Viruses, 2023).
